Results as given in patent publication US7875634B2, “Cyano anthranilamide insecticides” (E. I. du Pont de Nemours and Company, priority 2003, dated 2011).

Assays:
Type in all cases: in vivo
[1] = tested on: potato leafhopper (Empoasca fabae); experiment: Test 1 (I): xylem movement from soil application, potato leafhopper mortality (bean); settings: for % PLH M (potato leafhopper mortality): 1000 ppm, 1 mL to soil at base of bean plant, infested after 2 days, held 5 additional days
Source text: (§1) For evaluating movement of compounds in plants and control of green peach aphid (Myzus persicae) and potato leafhopper (Empoasca fabae) after xylem movement of compound from soil application up through roots into foliage, the test unit consisted of a small open container with a 12-15-day-old radish plant (for green peach aphid test) or 5-6-day-old Longio bean plant (for potato leafhopper test).
(§2) Test compounds were formulated using a solution containing 10% acetone, 90% water and 600 ppm X-77® Spreader Lo-Foam Formula non-ionic surfactant containing alkylarylpolyoxyethylene, free fatty acids, glycols and isopropanol (Loveland Industries, Inc.). The formulated compounds were applied in 1 mL of solution by pipet to the soil at the base of the plant. All experimental compounds in this screen were applied at 1000 ppm, and the tests were replicated three times. After applying the formulated test compounds, each test unit was allowed to dry for 1 h. The soil of each test unit was covered with a layer of sand and then a black, screened cap was placed on top. The test units were held in a growth chamber at about 20° C. and 50-70% relative humidity.
(§3) After 2 days, the plants were then infested with 20-30 aphids (radish) or 20 leafhoppers (bean) and held in the growth chamber for 5 additional days. Each test unit was then visually assessed for mortality of the insects, which had contacted and fed on the untreated plant foliage.

[2] = tested on: green peach aphid (Myzus persicae); experiment: Test 1 (I): xylem movement from soil application, green peach aphid mortality (radish); settings: for % GPA M (green peach aphid mortality): 1000 ppm, 1 mL to soil at base of radish plant, infested after 2 days, held 5 additional days
Source text: as §1, §2, §3

[3] = tested on: green peach aphid (Myzus persicae); experiment: Test C: control of green peach aphid through contact and/or systemic means, spray on radish; settings: 144 h
Source text: For evaluating control of green peach aphid (Myzus persicae) through contact and/or systemic means, the test unit consisted of a small open container with a 12-15-day-old radish plant inside. This was pre-infested by placing on a leaf of the test plant 30-40 aphids on a piece of leaf excised from a culture plant (cut-leaf method). The larvae moved onto the test plant as the leaf piece desiccated. After pre-infestation, the soil of the test unit was covered with a layer of sand.
Test compounds were formulated using a solution containing 10% acetone, 90% water and 300 ppm X-77® Spreader Lo-Foam Formula non-ionic surfactant containing alkylarylpolyoxyethylene, free fatty acids, glycols and isopropanol (Loveland Industries, Inc.). The formulated compounds were applied in 1 mL of liquid through a SUJ2 atomizer nozzle with ⅛ JJ custom body (Spraying Systems Co.) positioned 1.27 cm (0.5 inches) above the top of each test unit. All experimental compounds in this screen were sprayed at 250 ppm, replicated three times. After spraying of the formulated test compound, each test unit was allowed to dry for 1 hour and then a black, screened cap was placed on top. The test units were held for 6 days in a growth chamber at 19-21° C. and 50-70% relative humidity. Each test unit was then visually assessed for insect mortality.

[4] = tested on: corn planthopper (Peregrinus maidis); experiment: Test F: control of corn planthopper through contact and/or systemic means, spray on corn; settings: 144 h
Procedure: For evaluating control of corn planthopper (Peregrinus maidis) through contact and/or systemic means, the test unit consisted of a small open container with a 3-4 day old corn (maize) plant (spike) inside. White sand was added to the top of the soil prior to application. Test compounds were formulated and sprayed at 250 ppm and replicated three times as described for Test C. After spraying, the test units were allowed to dry for 1 hour before they were post-infested with 10-20 corn planthoppers (18- to 20-day old nymphs) by sprinkling them onto the sand with a salt shaker. A black, screened cap was placed on the top of the cylinder. The test units were held for 6 days in a growth chamber at 19-21° C. and 50-70% relative humidity. Each test unit was then visually assessed for insect mortality.

[5] = tested on: cotton melon aphid (Aphis gossypii); experiment: Test E: control of cotton melon aphid through contact and/or systemic means, spray on cotton; settings: 144 h
Source text: For evaluating control of cotton melon aphid (Aphis gossypii) through contact and/or systemic means, the test unit consisted of a small open container with a 6-7-day-old cotton plant inside. This was pre-infested with 30-40 insects on a piece of leaf according to the cut-leaf method described for Test C, and the soil of the test unit was covered with a layer of sand.
Test compounds were formulated and sprayed at 250 ppm as described for Test D. The applications were replicated three times. After spraying, the test units were maintained in a growth chamber and then visually rated as described for Test D.

[6] = tested on: potato leafhopper (Empoasca fabae Harris); experiment: Test D: control of potato leafhopper through contact and/or systemic means, spray on bean plant; settings: 144 h
Procedure: For evaluating control of potato leafhopper (Empoasca fabae Harris) through contact and/or systemic means, the test unit consisted of a small open container with a 5-6 day old Longio bean plant (primary leaves emerged) inside. White sand was added to the top of the soil and one of the primary leaves was excised prior to application. Test compounds were formulated and sprayed at 250 ppm and replicated three times as described for Test C. After spraying, the test units were allowed to dry for 1 hour before they were post-infested with 5 potato leafhoppers (18 to 21 day old adults). A black, screened cap was placed on the top of the cylinder. The test units were held for 6 days in a growth chamber at 19-21° C. and 50-70% relative humidity. Each test unit was then visually assessed for insect mortality.

[7] = tested on: green peach aphid (Myzus persicae); experiment: Test H: foliar movement of compound through the plant, green peach aphid mortality (radish); settings: applied at 1000 ppm, 20 microliters by pipet to two leaves of radish plant; infested after 2 days, held 8 additional days; insects fed on untreated plant tissues
Source text: as §1, with “foliar” for “xylem”, “compound” for “compound from soil application up”, “the plant,” for “roots into foliage,”, “5-6 day old” for “5-6-day-old”
as §2, with “20 microliters” for “1 mL of solution”, “two larger photosynthetically active leaves.” for “the soil at the base of the plant.”, “the” for “each test unit was allowed to dry for 1 h. The”, “sand and each test unit was allowed to dry for 1 hr” for “sand”
(§4) After 2 days, the treated leaves were covered on all sides with a fine plastic mesh, but with the leaf petiole intact and still attached to the plant to allow normal vascular movement and photosynthesis. The plants were then infested with 20-30 aphids (radish) or 20 leafhoppers (bean) and held in the growth chamber for 8 additional days. Each test unit was then visually assessed for mortality of the insects, which had contacted and fed on the untreated plant tissues.

[8] = tested on: potato leafhopper (Empoasca fabae); experiment: Test H: foliar movement of compound through the plant, potato leafhopper mortality (bean); settings: applied at 1000 ppm, 20 microliters by pipet to two leaves of bean plant; infested after 2 days, held 8 additional days; insects fed on untreated plant tissues
Source text: as §1, with “foliar” for “xylem”, “compound” for “compound from soil application up”, “the plant,” for “roots into foliage,”, “5-6 day old” for “5-6-day-old”
as §2, with “20 microliters” for “1 mL of solution”, “two larger photosynthetically active leaves.” for “the soil at the base of the plant.”, “the” for “each test unit was allowed to dry for 1 h. The”, “sand and each test unit was allowed to dry for 1 hr” for “sand”
as §4

Row | Structure (SMILES) | % GPA M (green peach aphid mortality) [7] [%] | % PLH M (potato leafhopper mortality) [8] [%] | % PLH M (potato leafhopper mortality) [1] [%] | % GPA M (green peach aphid mortality) [2] [%] | other results
1 | Cc1cc(C#N)cc(C(N)=O)c1NC(=O)c1cc(C(F)(F)F)nn1-c1ncccc1Cl [Compound 1] | 87 | 58 |  |  | mortality at 1000 ppm ([1]; Empoasca fabae, soil, read-out: % PLH M (potato leafhopper mortality)): 100%; mortality at 1000 ppm ([2]; Myzus persicae, soil, read-out: % GPA M (green peach aphid mortality)): 64%; mortality at 250 ppm [3]: ≥ 80%; mortality at 250 ppm [4]: ≥ 80%; mortality at 250 ppm [5]: ≥ 80%; mortality at 250 ppm [6]: ≥ 80%
2 | CNC(=O)c1cc(C#N)cc(C)c1NC(=O)c1cc(C(F)(F)F)nn1-c1ncccc1Cl [Compound 2] |  |  | 56 | 64 | 
3 | CNC(=O)c1cc(C#N)cc(C)c1NC(=O)c1cc(Cl)nn1-c1ncccc1Cl [Compound 3] | 81 | 96 |  |  | 
4 | Cc1cc(C#N)cc(C(N)=O)c1NC(=O)c1cc(Cl)nn1-c1ncccc1Cl [Compound 4] | 78 | 93 |  |  | 
5 | CNC(=O)c1cc(C#N)cc(C)c1NC(=O)c1cc(Br)nn1-c1ncccc1Cl [Compound 5] | 94 | 96 | 95 | 40 | 
6 | Cc1cc(C#N)cc(C(N)=O)c1NC(=O)c1cc(Br)nn1-c1ncccc1Cl [Compound 6] | 100 | 77 | 100 | 59 | 
7 | Cc1cc(C#N)cc(C(=O)NCC#N)c1NC(=O)c1cc(Cl)nn1-c1ncccc1Cl [Compound 26] | 67 | 73 |  |  | 
8 | Cc1cc(C#N)cc(C(=O)NCC#N)c1NC(=O)c1cc(Br)nn1-c1ncccc1Cl [Compound 27] | 57 | 13 |  |  | 
